The values that follow come from paper PMC10223062, “Discovery of Novel Thiophene/Hydrazones: In Vitro and In Silico Studies against Pancreatic Cancer” (Pharmaceutics, 2023).

Data set [1] has as its system MIA PaCa-2 tumor spheroids. Nature of the data set: 3D spheroid formation/growth assay. In kind it is cell-based, human. The conditions noted are these: for Spheroid Diameter Day 0: Day 0 (baseline); for Reduction of spheroid diameter: 9 days. Details: Spheroid Diameter Day 0 / Spheroid Diameter Day 9: unit not given here. The procedure:
For the preliminary assessment of anticancer activity in a 2D cell culture system, an MIA PaCa-2 human pancreas epithelial carcinoma (CRL-1420™) cell line (ATCC, Manassas, VA, USA) was cultured in Dulbecco’s Modified Eagle Medium with 10% fetal bovine serum (FBS, v/v) (Gibco, Billings, MT, USA) and supplemented with 1% antibiotics (10,000 μg/mL streptomycin and 10,000 U/mL penicillin) (Gibco, Billings, MT, USA) at 37 °C in a humidified 5% CO2 atmosphere. For the in vitro modeling of the tumor microenvironment, compounds were also tested in a 3D spheroid test system. For this purpose, the MIA PaCa-2 human pancreas epithelial carcinoma (CRL-1420™) cell line and human dermal fibroblast cell line HDF (PCS-201-012) cells were used.
For 3D spheroid formation, the MIA PaCa-2 cells (PC cell line) and HDF cells were used according to the 3D Bioprinting method. To better simulate the tumor microenvironment, PC cells were mixed (1:1) with human fibroblasts. Briefly, the MIA PaCa-2 cells and human fibroblasts at 70–80% confluency were added to a 6-well plate and incubated with biocompatible NanoShuttle TM-PL (Bioprinting Kit, Greiner Bio-One, Germany) overnight at 37 °C in a humidified 5% CO2 atmosphere. After the nanoparticles were taken up by the cells, they were resuspended and seeded into an ultra-low attachment 96-well plate at a volume of 100 μL (2000 PC cells and 2000 human fibroblasts per well) volume. The plate was placed on a magnetic drive and incubated at 37 °C in a humidified 5% CO2 atmosphere until spheroids were formed. After two days of incubation, the spheroids were photographed using light microscopy (Carl Zeiss Primo Vert, Germany). Fresh medium containing 0.1, 1, 10, and 100 µM of tested compound was added to the wells. Photos were taken every 72 h, and the medium was replaced every 72 h. The effect of the tested compounds in 3D PC cell cultures was examined by measuring the size change of spheroids using ImageJ software (ImageJ 2.0 software, USA).

Another data set has as its system HaCaT cell line. Nature of the data set: Cell viability (cytotoxicity) in healthy cells, MTT assay. The data set is classed as cell-based, human. The conditions noted are these: for IC50: Homo sapiens, HaCaT, MTT, 72 h, healthy keratinocytes, read-out: IC50 in 2D cultured HaCaT cell line; for Selectivity, cancer vs healthy cell line: MIA PaCa-2 vs healthy cell line (HaCaT). The procedure: HaCaT human healthy keratinocyte cells (CRL-2404™) (ATCC, Manassas, VA, USA) were cultured in DMEM (10% FBS, v/v) (Gibco, Billings, MT, USA), respectively and supplemented with 1% antibiotics (10.000 μg/mL streptomycin and 10.000 units/mL penicillin) (Gibco, Billings, MT, USA) at 37 °C in a humidified atmosphere of 5% CO2. For the preliminary assessment of the cytotoxicity of selected potent compounds in healthy cells, HaCaT cells were seeded 2 × 10^5 cells/mL in 96-well plate and incubated for 24 h. The following day the 7a, 7d, and 7f compounds were applied similarly as in the MIA PaCa-2 cytotoxicity protocol between concentrations 0.62–100 µM for 72 h and then MTT was applied.

Another data set addresses T1, COX-2 (Homo sapiens, UniProt P35354).
T1 sequence (P35354 18-604): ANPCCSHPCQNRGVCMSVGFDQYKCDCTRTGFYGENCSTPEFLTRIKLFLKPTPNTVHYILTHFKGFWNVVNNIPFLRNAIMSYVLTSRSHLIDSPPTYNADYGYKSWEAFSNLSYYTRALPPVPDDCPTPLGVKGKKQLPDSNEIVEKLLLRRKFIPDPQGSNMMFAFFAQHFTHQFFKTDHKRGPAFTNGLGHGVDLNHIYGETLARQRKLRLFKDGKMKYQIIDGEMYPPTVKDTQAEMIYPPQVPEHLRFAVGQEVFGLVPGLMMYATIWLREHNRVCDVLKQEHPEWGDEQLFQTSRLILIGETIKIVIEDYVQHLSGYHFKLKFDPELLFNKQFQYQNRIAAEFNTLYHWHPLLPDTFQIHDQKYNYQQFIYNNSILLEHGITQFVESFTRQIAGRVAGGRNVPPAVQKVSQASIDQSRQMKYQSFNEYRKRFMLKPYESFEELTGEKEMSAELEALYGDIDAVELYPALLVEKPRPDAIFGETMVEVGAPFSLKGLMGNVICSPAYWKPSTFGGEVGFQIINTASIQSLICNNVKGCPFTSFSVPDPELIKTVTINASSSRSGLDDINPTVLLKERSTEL
Nature of the data set: Fluorometric COX-2 inhibitor screening kit. The note with it: for COX-2 Percent of İnhibition: at 10 µM; for IC50: COX-2 IC50.

A further data set deals with T2, COX-1 (Ovis aries, UniProt P05979).
T2 sequence (P05979 25-600): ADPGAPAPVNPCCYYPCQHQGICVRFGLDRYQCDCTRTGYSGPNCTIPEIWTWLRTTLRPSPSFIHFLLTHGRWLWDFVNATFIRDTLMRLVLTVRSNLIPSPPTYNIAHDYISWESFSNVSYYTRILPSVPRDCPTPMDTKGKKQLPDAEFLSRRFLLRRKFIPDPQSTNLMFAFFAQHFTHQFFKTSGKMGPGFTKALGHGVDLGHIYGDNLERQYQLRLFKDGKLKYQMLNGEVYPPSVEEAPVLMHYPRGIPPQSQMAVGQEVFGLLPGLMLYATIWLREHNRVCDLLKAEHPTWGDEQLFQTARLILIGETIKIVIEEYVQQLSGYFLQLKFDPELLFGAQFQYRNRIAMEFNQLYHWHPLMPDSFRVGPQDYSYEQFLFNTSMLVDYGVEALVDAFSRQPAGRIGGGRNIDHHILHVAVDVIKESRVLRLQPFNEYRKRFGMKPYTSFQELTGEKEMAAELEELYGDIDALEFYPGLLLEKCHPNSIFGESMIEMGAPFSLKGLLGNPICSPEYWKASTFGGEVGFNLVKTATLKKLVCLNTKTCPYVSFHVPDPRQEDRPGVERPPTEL
Nature of the data set: Fluorometric COX-1 inhibitor screening kit.

Protocol for COX-1: (§1) COX-1 and COX-2 inhibitory activities were tested using fluorometric COX-1 and COX-2 inhibitor screening kits (Abcam, United Kingdom), and the 5-LOX inhibitory activity was tested using a fluorometric 5-LOX inhibitor screening kit (MyBioSource, USA). These assays are based on the fluorometric detection of Prostaglandin G2 (a product generated by the COX enzyme) or on the fluorometric detection of the intermediate generated by the 5-LOX enzyme.
(§2) For the determination of COX-1 and COX-2 inhibitory activity, the tested compounds were dissolved in dimethyl sulfoxide (DMSO, 5 mM stock solution) and then diluted with the same solvent to obtain the test solutions. The test solutions were further diluted 5× with COX Assay Buffer (2 µL of test solution: 8 µL COX Assay Buffer). […] Solvent Control (SC) was prepared by adding 2 µL DMSO and 8 µL COX Assay Buffer, while Sample (S) and Enzyme Control (EC) were prepared by adding 10 µL of diluted test solution and COX Assay Buffer, respectively, into assigned wells.
(§3) EC, SC, IC, and all test solutions were analyzed in triplicate.
Protocol for COX-2: as §1, §2, §3

Regarding `O=C(N/N=C/c1ccccc1O)c1cc(-c2ccccc2)c(-c2ccccc2)s1` [7a, N’-[(E)-(2-hydroxyphenyl)methylidene]-4,5-diphenylthiophene-2-carbohydrazide], the melting point came to 238 °C. In addition, the “Spheroid Diameter Day 0” value in data set [1] (0.1 µM group) was 1156.5 ± 14.2. In addition, the “Spheroid Diameter Day 9” value in data set [1] (0.1 µM) worked out at 5050.5 ± 36.9. Further, the “Spheroid Diameter Day 0” value in data set [1] (1 µM group) is on record as 1186.5 ± 91.9. The “Spheroid Diameter Day 9” value in data set [1] (1 µM) is on record as 1755.0 ± 58.9. In data set [1] (10 µM group), the “Spheroid Diameter Day 0” value is listed as 1176.0 ± 31.1. Besides, the “Spheroid Diameter Day 9” value in data set [1] (10 µM) stood at 636.0 ± 12.7. For the same compound, the “Reduction in spheroid size” value in data set [1] (10 µM, after 9 days of treatment) was 46%. In addition, in data set [1] (100 µM group), the “Spheroid Diameter Day 0” value came out at 1183.0 ± 36.1. Also, in data set [1] (100 µM), the “Reduction of spheroid diameter” value is 65% and the “Spheroid Diameter Day 9” value worked out at 432.0 ± 17.4. In the data set with HaCaT cell line, the IC50 turned out to be 880 ± 60 nM and the “Selectivity, cancer vs healthy cell line” value is “cytotoxic effects on healthy cell line too”. Further, at COX-2, the “COX-2 Percent of İnhibition” value was found to be 13.57 ± 0.38%.
`O=C(N/N=C/c1ccc(O)cc1)c1cc(-c2ccccc2)c(-c2ccccc2)s1` [7c, N’-[(E)-(4-hydroxyphenyl)methylidene]-4,5-diphenylthiophene-2-carbohydrazide] came in with a melting point of 256 °C. For the same compound, on COX-1, the IC50 is over 100 µM. For the same compound, in data set [1] (0.1 µM group), the “Spheroid Diameter Day 0” value turned out to be 1118.0 ± 31.1. In addition, in data set [1] (0.1 µM), the “Spheroid Diameter Day 9” value was determined as 5415.0 ± 12.7. For the same compound, the “Spheroid Diameter Day 0” value in data set [1] (1 µM group) was 1168.0 ± 52.7. Further, the “Spheroid Diameter Day 9” value in data set [1] (1 µM) was 6174.0 ± 106.1. Besides, the “Spheroid Diameter Day 0” value in data set [1] (10 µM group) was 989.5 ± 54.1. Also, the “Spheroid Diameter Day 9” value in data set [1] (10 µM) is 3729.5 ± 12.8. Besides, in data set [1] (100 µM group), the “Spheroid Diameter Day 0” value is 940.5 ± 33.9. Further, in data set [1] (100 µM), the “Spheroid Diameter Day 9” value is 2207.0 ± 47.1. In addition, on COX-2, the IC50 was found to be 10.1 ± 0.25 µM and the “COX-2 Percent of İnhibition” value turned out to be 51.97 ± 2.51%.
The compound `COc1ccccc1/C=N/NC(=O)c1cc(-c2ccccc2)c(-c2ccccc2)s1` [7d, N’-[(E)-(2-methoxyphenyl)methylidene]-4,5-diphenylthiophene-2-carbohydrazide] had a melting point of 263 °C. The “Spheroid Diameter Day 0” value in data set [1] (0.1 µM group) is 1127.5 ± 36.1. Besides, the “Spheroid Diameter Day 9” value in data set [1] (0.1 µM) was 4911.0 ± 117.4. Also, the “Spheroid Diameter Day 0” value in data set [1] (1 µM group) amounted to 1211.0 ± 17.9. Moreover, in data set [1] (1 µM), the “Spheroid Diameter Day 9” value was found to be 6312.5 ± 24.8. Moreover, the “Spheroid Diameter Day 0” value in data set [1] (10 µM group) worked out at 1297.5 ± 55.1. The “Spheroid Diameter Day 9” value in data set [1] (10 µM) came out at 1708.0 ± 87.1. Moreover, the “Spheroid Diameter Day 0” value in data set [1] (100 µM group) came out at 974.0 ± 32.2. Further, in data set [1] (100 µM), the “Reduction of spheroid diameter” value was found to be 55% and the “Spheroid Diameter Day 9” value is given as 445.7 ± 64.1. In addition, in the data set on HaCaT cell line, the IC50 is over 100000 nM and the “Selectivity, cancer vs healthy cell line” value is listed as “showed selectivity”. Moreover, the “COX-2 Percent of İnhibition” value on COX-2 worked out at 16.74 ± 3.36%.
Compound `COc1cc(/C=N/NC(=O)c2cc(-c3ccccc3)c(-c3ccccc3)s2)ccc1O` [7e, N’-[(E)-(3-methoxy-4-hydroxyphenyl)methylidene]-4,5-diphenylthiophene-2-carbohydrazide] came in with a melting point of 234 °C. This compound displayed an IC50 on COX-1 of over 100 µM. In data set [1] (0.1 µM group), the “Spheroid Diameter Day 0” value stood at 1181.5 ± 33.2. The “Spheroid Diameter Day 9” value in data set [1] (0.1 µM) is listed as 5607.5 ± 44.55. Moreover, in data set [1] (1 µM group), the “Spheroid Diameter Day 0” value worked out at 1153.0 ± 73.5. Besides, the “Spheroid Diameter Day 9” value in data set [1] (1 µM) came out at 6396.0 ± 16.1. Moreover, in data set [1] (10–100 µM), the “Spheroid state at the end of the 9 days” value was “disintegrated”. At COX-2, the IC50 was 13.9 ± 0.76 µM and the “COX-2 Percent of İnhibition” value is listed as 49.41±1.12%.
The compound `COc1ccc(/C=N/NC(=O)c2cc(-c3ccccc3)c(-c3ccccc3)s2)cc1O` [7f, N’-[(E)-(3-hydroxy-4-methoxyphenyl)methylidene]-4,5-diphenylthiophene-2-carbohydrazide] yielded a melting point of 249 °C. Moreover, the IC50 against COX-1 was over 100 µM. For the same compound, in data set [1] (0.1 µM group), the “Spheroid Diameter Day 0” value was 1110.0 ± 113.1. In data set [1] (0.1 µM), the “Spheroid Diameter Day 9” value turned out to be 5823.0 ± 39.8. Besides, the “Spheroid Diameter Day 0” value in data set [1] (1 µM group) stood at 1108.0 ± 17.6. Further, in data set [1] (1 µM), the “Spheroid Diameter Day 9” value is 4336.0 ± 48.1. For the same compound, the “Spheroid Diameter Day 0” value in data set [1] (10 µM group) came to 1215.0 ± 12.7. The “Spheroid Diameter Day 9” value in data set [1] (10 µM) was 2806.0 ± 31.5. Moreover, in data set [1] (100 µM), the “Spheroid state at the end of the 9 days” value is reported as “disintegrated”. Moreover, in the data set on HaCaT cell line, the IC50 came out at 670 ± 130 nM and the “Selectivity, cancer vs healthy cell line” value was “cytotoxic effects on healthy cell line too”. Also, at COX-2, the IC50 came to 39 ± 3.41 µM and the “COX-2 Percent of İnhibition” value amounted to 38.41 ± 0.85%.
